Test results reported in patent US9447069B2, “ROR modulators and their uses” (INNOV17 LLC, priority 2012, dated 2016).
Like-named read-outs stand apart in the source and are kept apart here.

Experiments:
RORα LBD = molecular target: T1, RORα LBD (Homo sapiens, UniProt P35398); test: TR-FRET D22 co-activator displacement from RORα LBD; type: biochemical
T1 construct: purified GST-tagged (i) RORγ LBD or (ii) RORα LBD; purchased Life Technologies
T1 sequence (P35398 272-510 limits assumed): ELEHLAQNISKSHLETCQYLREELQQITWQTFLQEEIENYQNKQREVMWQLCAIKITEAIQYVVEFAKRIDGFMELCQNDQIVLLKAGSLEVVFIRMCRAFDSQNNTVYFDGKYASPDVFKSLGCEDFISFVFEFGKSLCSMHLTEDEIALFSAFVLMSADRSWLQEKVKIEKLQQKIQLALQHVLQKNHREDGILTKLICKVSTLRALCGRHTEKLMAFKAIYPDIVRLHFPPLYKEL
Source text: (§1) The Time-Resolved Fluorescence Resonance Energy Transfer (TR-FRET) assay kit (Life Technologies) was used to measure compound efficacy to disrupt or enhance ligand-mediated interaction of the co-activator and co-repressor peptides with the purified GST-tagged (i) RORγ LBD or (ii) RORα LBD. The RORγ LBD and RORα LBD each have a basal level of interaction with the co-activator D22 or co-repressor NCoR1-D2 in the absence of ligand, thus it is possible to identify compounds that inhibit or induce RORγ and/or RORα co-activator/co-repressor interactions, thus determining RORα, RORγ, or RORα/RORγ compound selectivity. The assay was performed as per manufacturer's instructions and TR-FRET was assessed 2 and 20 hours post-assay initiation. Compounds were identified to (i) have no impact on either co-activator displacement or […] from the assessed LBD (ii) promote co-activator displacement from the assessed LBD (iii) promote co-repressor recruitment to the assessed LBD or (iv) concurrently promote co-activator displacement from the assessed LBD and co-repressor recruitment to the assessed LBD.

RORγ LBD [1] = molecular target: T2, RORγ LBD (Homo sapiens, UniProt P51449); test: TR-FRET D22 co-activator displacement from RORγ LBD; type: biochemical; design: purified GST-tagged (i) RORγ LBD or (ii) RORα LBD; purchased Life Technologies
T2 sequence (P51449 269-508 limits assumed): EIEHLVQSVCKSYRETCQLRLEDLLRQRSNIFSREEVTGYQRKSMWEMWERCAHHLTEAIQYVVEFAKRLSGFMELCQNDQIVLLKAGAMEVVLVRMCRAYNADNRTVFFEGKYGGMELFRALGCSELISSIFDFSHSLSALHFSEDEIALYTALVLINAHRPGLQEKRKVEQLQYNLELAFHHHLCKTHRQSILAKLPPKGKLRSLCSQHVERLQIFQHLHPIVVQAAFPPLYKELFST
Source text: as §1

IL-17F = test: Real-Time qRT-PCR gene expression in TH17 cells (IL-17F); type: cell-based, human; design: key: A: No change in gene expression observed relative to DMSO treated Th17 cells; B: Decreased gene expression observed relative to DMSO treated Th17 cells; C: Increased gene expression observed relative to DMSO treated Th17 cells; details: normalized to six reference genes
Experimental: (§2) Peripheral blood mononuclear cells (PBMCs) were sourced from freshly prepared leukocyte enriched plasma (buffy coat) from healthy volunteers from which PBMCs were isolated by density gradient centrifugation using Ficoll-Paque™ PLUS (GE Healthcare). Naïve CD4+ T cells were isolated using the Naïve CD4+ T cell Isolation Kit II (Miltenyi Biotec) as per manufacturer's instructions. CD4+ T cells were plated at 5×10^4 cells/well in 96 well plates pre-coated with immobilized human (h)-αCD3 antibody (eBioscience) then differentiated to TH17 cells using h-αCD28, h-αIFN-γ, h-αIL-4, h-IL-6, h-IL-23, h-IL-1β, h-TGF-β1 (eBioscience) and maintained in a cell culture incubator at 37° C. with 5% CO2 in TexMACS Medium (Miltenyi Biotec) supplemented with 1% Penicillin/Streptomycin (Lonza) over 5 days.
(§3) RNA was isolated from TH17 cells and cDNA was synthesized using the Verso cDNA kit (Thermo Scientific) as per manufacturer's instructions. IL-17A, IL-17F, IL-21, IL-22, G-CSF, IL-23R and FOXP3 gene expression were determined for compound treated and untreated TH17 cell samples using Solaris qPCR Gene expression assays (Thermo Scientific) with an iCycler iQ Real-Time PCR Detection System (Bio-Rad). Individual gene expression was normalized to a panel of six reference genes (ACTB, TBP, HPRT1, PGK1, TFRC and PPIA) (Thermo Scientific) and analyzed by REST 2009 (Qiagen) in accordance to MIQE guidelines (Bustin et al. (2009) Clin. Chem, 55:611-622). The effects of compounds on TH17 cytokine gene expression are presented as fold change in mRNA levels of compound treated TH17 cells relative to DMSO treated cells in the table below.

IL-23R = test: Real-Time qRT-PCR gene expression in TH17 cells (IL-23R); type: cell-based, human; design: key: A: No change in gene expression observed relative to DMSO treated Th17 cells; B: Decreased gene expression observed relative to DMSO treated Th17 cells; C: Increased gene expression observed relative to DMSO treated Th17 cells; details: normalized to six reference genes
Experimental: as §2, §3

IL-22 = test: TH17 cytokine inhibition measured by ELISA (IL-22); type: cell-based; details: 120 h; human TH17 cells, 5 days differentiation, ELISA of supernatants, 0.1% DMSO
Experimental: as §2
Human CD4+ T cells were differentiated to TH17 cells as described in the presence or absence of various concentrations of compounds in a final concentration of 0.1% DMSO in TexMACS medium. Supernatants were collected and stored at −20° C. until they were to be assayed for IL-17A, IL-17F, IL-17AF, IL-21 and/or IL-22 levels as determined by Ready-Set-Go ELISA kits (eBioscience) as per manufacturer's instructions. Endpoint absorbance was read at 450 nm and 570 nm according to manufacturer's instructions (eBioscience) using a microplate reader (Perkin Elmer). The percentage of cytokine inhibition was calculated with reference to DMSO treated cells and the IC50s were determined by GraphPad Prism software and presented in the table below.

RORγ LBD [2] = molecular target: T2, RORγ LBD; test: TR-FRET NCoR1-D2 co-repressor recruitment to RORγ LBD; type: biochemical; design: purified GST-tagged (i) RORγ LBD or (ii) RORα LBD; purchased Life Technologies
Source text: as §1

[3] = TR-FRET assessed 2 hr post-assay initiation, read-out: RORα EC50 D22 co-activator displacement, 2 hr
[4] = TR-FRET assessed 20 hr post-assay initiation, read-out: RORα EC50 D22 co-activator displacement, 20 hr
[5] = TR-FRET assessed 2 hr post-assay initiation, read-out: RORγ EC50 D22 co-activator displacement, 2 hr
[6] = TR-FRET assessed 20 hr post-assay initiation, read-out: RORγ EC50 D22 co-activator displacement, 20 hr
[7] = TR-FRET assessed 2 hr post-assay initiation, read-out: RORγ EC50 NCoR1-D2 co-repressor recruitment, 2 hr
[8] = TR-FRET assessed 20 hr post-assay initiation, read-out: RORγ EC50 NCoR1-D2 co-repressor recruitment, 20 hr

Row | EC50 (RORα LBD; [3]) [µM] | EC50 (RORα LBD; [4]) [µM] | EC50 (RORγ LBD [1]; [5]) [µM] | EC50 (RORγ LBD [1]; [6]) [µM] | IC50 (IL-22) [µM] | EC50 (RORγ LBD [2]; [7]) [µM] | EC50 (RORγ LBD [2]; [8]) [µM] | SMILES | Fold change in mRNA levels of compound treated TH17 cells relative to DMSO treated cells, IL-17F (IL-17F) | Fold change in mRNA levels of compound treated TH17 cells relative to DMSO treated cells, IL-23R (IL-23R)
1 | > 30 | > 30 | < 30 | > 30 | < 10 | > 30 | < 30 | Cc1n[nH]c(-c2ccc3c(c2)CCCN3Cc2ccc(C(O)(C(F)(F)F)C(F)(F)F)cc2)n1 [Example 3, 1,1,1,3,3,3-hexafluoro-2-(4-((6-(3-methyl-1H-1,2,4-triazol-5-yl)-3,4-dihydroquinolin-1(2H)-yl)methyl)phenyl)propan-2-ol] | B | A
2 | < 30 | < 30 | < 30 | < 30 | < 10 | > 30 | > 30 | Cc1n[nH]c(-c2ccc3c(c2)CCC(=O)N3Cc2ccc(C(O)(C(F)(F)F)C(F)(F)F)cc2)n1 [Example 6, 1-(4-(1,1,1,3,3,3-hexafluoro-2-hydroxypropan-2-yl)benzyl)-6-(3-methyl-1H-1,2,4-triazol-5-yl)-3,4-dihydroquinolin-2(1H)-one] | B | C
3 | > 30 | < 30 | < 30 | < 30 | < 10 | > 30 | < 30 | Cc1cc(-c2ccc3c(c2)CCCN3Cc2ccc(C(O)(C(F)(F)F)C(F)(F)F)cc2)[nH]n1 [Example 1, 1,1,1,3,3,3-hexafluoro-2-(4-((6-(3-methyl-1H-pyrazol-5-yl)-3,4-dihydroquinolin-1(2H)-yl)methyl)phenyl)propan-2-ol] | B | A
4 | > 30 | > 30 | > 30 | > 30 | < 10 | > 30 | < 30 | Cc1cc(-c2ccc3c(c2)CCC(=O)N3Cc2ccc(C(O)(C(F)(F)F)C(F)(F)F)cc2)[nH]n1 [Example 4, 1-(4-(1,1,1,3,3,3-hexafluoro-2-hydroxypropan-2-yl)benzyl)-6-(3-methyl-1H-pyrazol-5-yl)-3,4-dihydroquinolin-2(1H)-one] | B | A
5 | > 30 | > 30 | > 30 | < 30 | < 10 | > 30 | < 30 | O=C1CCc2cc(-c3cn[nH]c3)ccc2N1Cc1ccc(C(O)(C(F)(F)F)C(F)(F)F)cc1 [Example 5, 1-(4-(1,1,1,3,3,3-hexafluoro-2-hydroxypropan-2-yl)benzyl)-6-(1H-pyrazol-4-yl)-3,4-dihydroquinolin-2(1H)-one] | A | A
6 | < 30 | < 30 | < 30 | < 30 | < 10 | < 30 | < 30 | OC(c1ccc(CN2CCCc3cc(-c4cn[nH]c4)ccc32)cc1)(C(F)(F)F)C(F)(F)F [Example 2, 2-(4-((6-(1H-pyrazol-4-yl)-3,4-dihydroquinolin-1(2H)-yl)methyl)phenyl)-1,1,1,3,3,3-hexafluoropropan-2-ol] | B | A
